In article PMC3983056 (PLoS Pathogens, 2014) one finds cell viability and IC50 data, which are given here for 1 compound.

Data set [1] has as its system memory CD4 cells from HIV-infected patients. Nature of the data set: Viability of primary memory CD4 cells (Cell TiterGlo, 6 days). The format is cell-based, human. Particulars: memory CD4 cells, tested RMD concentrations (5 and 20 nM, 4 hours), day 6. The protocol:
Cell viability was determined using a Cell TiterGlo reagent 6 days after the initiation of treatment and is expressed as a percentage of cell viability relative to control vehicle-treated memory CD4 cells from the same donors. The data represent mean +/− S.D. from three independent donors. (TIF) Click here for additional data file.
On the technique in general: ATP-based viability assays read luminescence as a measure of living cells.

Data set [2] deals with T1, human HDAC-11 (Homo sapiens, UniProt Q96DB2).
T1 construct: purchased Reaction Biology Corporation (Malvern, PA)
T1 sequence (Q96DB2 whole entry): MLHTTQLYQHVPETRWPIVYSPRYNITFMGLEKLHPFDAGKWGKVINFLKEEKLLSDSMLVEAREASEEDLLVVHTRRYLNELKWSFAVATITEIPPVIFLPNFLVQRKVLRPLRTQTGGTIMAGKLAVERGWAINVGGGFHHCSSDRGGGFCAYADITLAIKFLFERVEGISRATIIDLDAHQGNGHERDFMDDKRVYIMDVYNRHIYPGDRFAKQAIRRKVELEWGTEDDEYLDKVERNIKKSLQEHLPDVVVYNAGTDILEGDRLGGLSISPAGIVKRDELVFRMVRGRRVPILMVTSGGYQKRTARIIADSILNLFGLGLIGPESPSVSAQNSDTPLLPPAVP
The data set can be described thus: HDAC inhibition assay. The data set is classed as biochemical.
Protocol: Determination of HDACi potency against individual HDAC enzymes was performed at Reaction Biology Corporation (Malvern, PA). In brief, human HDAC-1 to -11 enzymes were incubated with serial dilutions of HDACi and fluorogenic peptide substrates (50 µM) in a 96-well format assay. […] Fluorogenic peptide Boc-Lys(trifluoroacetyl)-AMC was used as a substrate for HDAC enzymes 4, 5, 7, and 9.

Broadly, the IC50 is the concentration that gives 50% inhibition. Low values mean greater potency in that assay, high ones weaker potency in that assay.

Structures are written as SMILES.

Consider `C/C=C1\NC(=O)[C@H]2CSSCC/C=C/[C@H](CC(=O)N[C@H](C(C)C)C(=O)N2)OC(=O)[C@H](C(C)C)NC1=O` [RMD, romidepsin], for which the cell viability entry in data set [1] is on record as “did not substantially affect cell viability”. In addition, inhibition in data set [2] was half-maximal at 0.407 nM (IC50).
